Article PMC7180948, “New Insights into 4-Anilinoquinazolines as Inhibitors of Cardiac Troponin I–Interacting Kinase (TNNi3K)” (Molecules, 2020)

How the values were obtained:
Assay in all cases: biochemical
Parameters in all cases: KINOMEscan competition binding panel (Eurofins DiscoverX), single concentration, percent inhibition
Conditions in all cases: read-out: 15 at 1 µM % inhibition
EIF2AK1 = EIF2AK1 (Homo sapiens, UniProt Q9BQI3)
Experimental: (§1) KinomeScan® Assay on 7 and 15 was performed as previously described by EuroFins DiscoverX [24]. GSK114 (7) and 15 were submitted for a KINOMEscan® assay to explore the selectivity profile across >400 human kinases at a compound concentration of 1 µM. […] GSK114 (7) is a narrow-spectrum TNNi3K inhibitor but has some potent off-targets including GAK which has been previously reported for this chemotype. […] If utilized together this set of compounds could be useful to investigate TNNi3K biology.

RET = RET (Homo sapiens, UniProt P07949)
Experimental: as §1

FLT3(K663Q) = FLT3(K663Q) (Homo sapiens, UniProt P36888, K663Q)
Experimental: as §1

TLK1 = TLK1 (Homo sapiens, UniProt Q9UKI8)
Experimental: as §1

ABL2 = ABL2 (Homo sapiens, UniProt P42684)
Experimental: as §1

PAK6 = PAK6 (Homo sapiens, UniProt Q9NQU5)
Experimental: as §1

DCAMKL3 = molecular target: T1, DCAMKL3 (Homo sapiens, UniProt Q9C098)
T1 construct: gene DCLK3
Experimental: as §1

MRCKB = molecular target: T2, MRCKB (Homo sapiens, UniProt Q9Y5S2)
T2 construct: gene CDC42BPB
Experimental: as §1

CDK4-cyclinD3 = molecular target: T3, CDK4-cyclinD3 (Homo sapiens, UniProt P11802)
T3 construct: cyclinD3
Experimental: as §1

ACVR2A = ACVR2A (Homo sapiens, UniProt P27037)
Experimental: as §1

PIK3CA(I800L) = PIK3CA(I800L) (Homo sapiens, UniProt P42336, I800L)
Experimental: as §1

PAK2 = PAK2 (Homo sapiens, UniProt Q13177)
Experimental: as §1

EGFR = EGFR (Homo sapiens, UniProt P00533)
Experimental: as §1

EPHA4 = EPHA4 (Homo sapiens, UniProt P54764)
Experimental: as §1

STK35 = STK35 (Homo sapiens, UniProt Q8TDR2)
Experimental: as §1

LATS2 = LATS2 (Homo sapiens, UniProt Q9NRM7)
Experimental: as §1

FGFR2 = FGFR2 (Homo sapiens, UniProt P21802)
Experimental: as §1

CASK = CASK (Homo sapiens, UniProt O14936)
Experimental: as §1

HIPK4 = HIPK4 (Homo sapiens, UniProt Q8NE63)
Experimental: as §1

BLK = BLK (Homo sapiens, UniProt P51451)
Experimental: as §1

YANK3 = molecular target: T4, YANK3 (Homo sapiens, UniProt Q86UX6)
T4 construct: gene STK32C
Experimental: as §1

MAP4K2 = MAP4K2 (Homo sapiens, UniProt Q12851)
Experimental: as §1

[1] = molecular target: T5, RSK1(Kin.Dom.1-N-terminal) (Homo sapiens, UniProt Q15418)
T5 construct: gene RPS6KA1; Kin.Dom.1-N-terminal
Experimental: as §1

EPHA2 = EPHA2 (Homo sapiens, UniProt P29317)
Experimental: as §1

T4 sequence (Q86UX6 whole entry): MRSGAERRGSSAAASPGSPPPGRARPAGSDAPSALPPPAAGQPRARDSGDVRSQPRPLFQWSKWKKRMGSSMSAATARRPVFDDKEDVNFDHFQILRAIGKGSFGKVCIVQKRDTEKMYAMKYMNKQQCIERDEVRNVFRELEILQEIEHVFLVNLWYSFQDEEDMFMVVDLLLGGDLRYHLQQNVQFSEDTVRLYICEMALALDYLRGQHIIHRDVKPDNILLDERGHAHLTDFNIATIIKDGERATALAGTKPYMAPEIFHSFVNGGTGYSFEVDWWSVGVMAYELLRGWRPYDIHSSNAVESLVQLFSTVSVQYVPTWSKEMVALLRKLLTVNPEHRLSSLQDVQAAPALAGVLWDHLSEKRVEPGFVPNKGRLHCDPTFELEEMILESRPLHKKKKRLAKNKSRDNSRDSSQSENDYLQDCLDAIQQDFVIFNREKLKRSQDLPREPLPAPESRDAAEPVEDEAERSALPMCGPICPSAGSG
Sequence of EPHA4 (P54764 whole entry): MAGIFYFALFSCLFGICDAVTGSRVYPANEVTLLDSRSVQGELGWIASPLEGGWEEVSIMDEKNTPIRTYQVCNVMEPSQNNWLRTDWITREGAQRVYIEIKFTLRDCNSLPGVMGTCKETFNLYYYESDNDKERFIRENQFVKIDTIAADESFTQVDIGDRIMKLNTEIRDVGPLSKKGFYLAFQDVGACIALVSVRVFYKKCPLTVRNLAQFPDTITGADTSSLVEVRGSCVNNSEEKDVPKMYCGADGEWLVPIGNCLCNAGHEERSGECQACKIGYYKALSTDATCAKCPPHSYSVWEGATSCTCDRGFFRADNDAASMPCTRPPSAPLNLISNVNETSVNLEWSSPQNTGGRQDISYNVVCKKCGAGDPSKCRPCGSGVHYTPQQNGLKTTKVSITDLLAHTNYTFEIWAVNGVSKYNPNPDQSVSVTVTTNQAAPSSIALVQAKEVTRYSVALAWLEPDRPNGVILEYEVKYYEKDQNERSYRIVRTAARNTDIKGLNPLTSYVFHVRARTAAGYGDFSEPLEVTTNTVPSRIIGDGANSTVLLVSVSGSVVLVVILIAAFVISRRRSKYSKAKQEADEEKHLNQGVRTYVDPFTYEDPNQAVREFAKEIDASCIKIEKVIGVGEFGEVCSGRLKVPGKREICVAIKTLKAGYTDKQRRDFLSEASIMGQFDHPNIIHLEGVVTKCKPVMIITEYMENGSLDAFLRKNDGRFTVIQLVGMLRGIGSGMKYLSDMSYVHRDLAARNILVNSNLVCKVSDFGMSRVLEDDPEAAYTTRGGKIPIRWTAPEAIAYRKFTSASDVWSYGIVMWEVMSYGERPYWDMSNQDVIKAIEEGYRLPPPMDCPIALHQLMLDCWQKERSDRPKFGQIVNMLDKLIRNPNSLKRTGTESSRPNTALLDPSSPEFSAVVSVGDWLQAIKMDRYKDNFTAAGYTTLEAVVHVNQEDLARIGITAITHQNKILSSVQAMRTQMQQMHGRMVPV
Sequence of CASK (O14936 whole entry): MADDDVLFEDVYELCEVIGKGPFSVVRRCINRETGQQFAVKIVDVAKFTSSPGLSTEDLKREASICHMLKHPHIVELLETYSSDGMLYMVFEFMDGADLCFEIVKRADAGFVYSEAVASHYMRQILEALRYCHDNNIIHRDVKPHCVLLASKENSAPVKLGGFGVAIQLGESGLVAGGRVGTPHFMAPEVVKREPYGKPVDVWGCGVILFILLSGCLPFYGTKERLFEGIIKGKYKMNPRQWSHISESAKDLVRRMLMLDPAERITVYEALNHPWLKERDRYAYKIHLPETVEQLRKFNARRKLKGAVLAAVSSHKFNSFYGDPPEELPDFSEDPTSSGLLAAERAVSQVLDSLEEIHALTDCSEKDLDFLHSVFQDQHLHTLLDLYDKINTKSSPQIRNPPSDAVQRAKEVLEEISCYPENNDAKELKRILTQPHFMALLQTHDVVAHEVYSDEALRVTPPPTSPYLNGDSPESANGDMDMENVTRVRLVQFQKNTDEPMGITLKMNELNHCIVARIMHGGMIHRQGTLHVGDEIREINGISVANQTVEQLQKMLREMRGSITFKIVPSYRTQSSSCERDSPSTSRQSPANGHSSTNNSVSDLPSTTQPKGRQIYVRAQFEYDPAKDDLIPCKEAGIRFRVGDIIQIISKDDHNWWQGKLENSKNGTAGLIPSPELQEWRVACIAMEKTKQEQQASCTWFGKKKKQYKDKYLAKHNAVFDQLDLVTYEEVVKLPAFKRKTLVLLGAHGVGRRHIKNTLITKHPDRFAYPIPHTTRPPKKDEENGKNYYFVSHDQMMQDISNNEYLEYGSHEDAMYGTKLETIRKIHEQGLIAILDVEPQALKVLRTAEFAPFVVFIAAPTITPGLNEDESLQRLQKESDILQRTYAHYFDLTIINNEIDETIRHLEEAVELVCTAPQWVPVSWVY
Sequence of BLK (P51451 whole entry): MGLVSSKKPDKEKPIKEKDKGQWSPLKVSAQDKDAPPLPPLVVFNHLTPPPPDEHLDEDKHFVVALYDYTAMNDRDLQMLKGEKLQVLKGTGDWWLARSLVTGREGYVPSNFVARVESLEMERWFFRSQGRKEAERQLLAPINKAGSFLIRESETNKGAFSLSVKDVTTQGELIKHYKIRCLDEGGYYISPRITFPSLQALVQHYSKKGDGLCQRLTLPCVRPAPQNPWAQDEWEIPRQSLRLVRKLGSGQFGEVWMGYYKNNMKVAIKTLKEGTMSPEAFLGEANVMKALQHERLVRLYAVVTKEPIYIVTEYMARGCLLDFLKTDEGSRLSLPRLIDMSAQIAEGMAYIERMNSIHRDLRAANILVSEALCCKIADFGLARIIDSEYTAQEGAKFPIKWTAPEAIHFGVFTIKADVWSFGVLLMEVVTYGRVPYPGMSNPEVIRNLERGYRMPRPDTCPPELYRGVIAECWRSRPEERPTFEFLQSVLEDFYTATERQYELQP
Sequence of HIPK4 (Q8NE63 whole entry): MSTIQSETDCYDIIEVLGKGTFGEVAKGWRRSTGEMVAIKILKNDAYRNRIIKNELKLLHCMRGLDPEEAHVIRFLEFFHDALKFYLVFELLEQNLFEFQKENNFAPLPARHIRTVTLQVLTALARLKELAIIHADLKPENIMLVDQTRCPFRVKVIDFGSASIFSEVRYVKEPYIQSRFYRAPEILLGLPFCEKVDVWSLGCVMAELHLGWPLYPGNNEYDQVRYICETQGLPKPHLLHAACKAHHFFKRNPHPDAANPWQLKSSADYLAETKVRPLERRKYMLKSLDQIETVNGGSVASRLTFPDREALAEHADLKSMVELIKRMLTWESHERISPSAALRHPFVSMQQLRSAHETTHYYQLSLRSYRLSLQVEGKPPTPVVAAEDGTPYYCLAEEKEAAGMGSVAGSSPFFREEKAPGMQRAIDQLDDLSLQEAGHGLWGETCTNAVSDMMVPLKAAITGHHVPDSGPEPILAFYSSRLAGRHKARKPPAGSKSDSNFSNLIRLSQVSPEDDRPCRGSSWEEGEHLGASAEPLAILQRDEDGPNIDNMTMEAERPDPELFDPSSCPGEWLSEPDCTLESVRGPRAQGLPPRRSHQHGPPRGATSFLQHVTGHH
Sequence of EGFR (P00533 whole entry): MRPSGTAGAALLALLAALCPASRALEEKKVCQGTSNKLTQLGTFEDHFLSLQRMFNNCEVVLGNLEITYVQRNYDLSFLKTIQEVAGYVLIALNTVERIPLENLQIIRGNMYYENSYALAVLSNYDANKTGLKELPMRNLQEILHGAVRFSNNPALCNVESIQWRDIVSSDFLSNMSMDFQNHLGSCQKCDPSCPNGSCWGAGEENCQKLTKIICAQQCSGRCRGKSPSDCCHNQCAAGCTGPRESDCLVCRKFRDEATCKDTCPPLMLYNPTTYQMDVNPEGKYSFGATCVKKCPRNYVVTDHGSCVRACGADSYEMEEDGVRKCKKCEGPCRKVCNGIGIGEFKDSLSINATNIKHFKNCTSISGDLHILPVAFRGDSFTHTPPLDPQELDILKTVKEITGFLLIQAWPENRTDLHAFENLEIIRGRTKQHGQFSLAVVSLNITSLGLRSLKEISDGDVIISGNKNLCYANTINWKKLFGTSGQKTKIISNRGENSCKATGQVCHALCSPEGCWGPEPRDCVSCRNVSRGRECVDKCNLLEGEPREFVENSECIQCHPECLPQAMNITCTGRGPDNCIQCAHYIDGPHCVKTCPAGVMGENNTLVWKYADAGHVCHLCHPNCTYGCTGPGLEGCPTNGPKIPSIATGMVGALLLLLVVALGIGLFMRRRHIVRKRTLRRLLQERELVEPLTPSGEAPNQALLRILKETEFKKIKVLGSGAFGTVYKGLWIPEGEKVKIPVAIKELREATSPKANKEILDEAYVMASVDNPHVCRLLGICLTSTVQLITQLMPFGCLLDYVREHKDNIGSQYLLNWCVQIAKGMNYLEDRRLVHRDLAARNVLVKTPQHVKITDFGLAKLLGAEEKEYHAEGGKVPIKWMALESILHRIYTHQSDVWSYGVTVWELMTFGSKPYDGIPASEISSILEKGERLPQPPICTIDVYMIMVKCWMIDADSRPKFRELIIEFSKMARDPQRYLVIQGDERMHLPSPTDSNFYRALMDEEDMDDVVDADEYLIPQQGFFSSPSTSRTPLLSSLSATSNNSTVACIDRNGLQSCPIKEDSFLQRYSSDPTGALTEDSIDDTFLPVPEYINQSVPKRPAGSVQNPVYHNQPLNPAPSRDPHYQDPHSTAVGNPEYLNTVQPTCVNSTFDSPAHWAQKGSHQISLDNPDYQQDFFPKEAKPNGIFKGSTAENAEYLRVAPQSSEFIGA

`CNS(=O)(=O)c1ccc(N(C)C)c(Nc2nc(C)nc3cc(OC)c(OC)cc23)c1` [compound 15, 3-((6,7-dimethoxy-2-methylquinazolin-4-yl)amino)-4-(dimethylamino)-N-methylbenzenesulfonamide] gave an inhibition at 1 µM (EIF2AK1) of 4%, an inhibition at 1 µM (RET) of 0% and an inhibition at 1 µM (FLT3(K663Q)) of 10%. For the same compound, the inhibition at 1 µM (TLK1) was 9%, the inhibition at 1 µM (ABL2) was 0% and the inhibition at 1 µM (PAK6) was 3%. It also gave an inhibition at 1 µM (DCAMKL3) of 6%, an inhibition at 1 µM (MRCKB) of 1% and an inhibition at 1 µM (CDK4-cyclinD3) of 15%. For the same compound, the inhibition at 1 µM (ACVR2A) was 0%, the inhibition at 1 µM (PIK3CA(I800L)) was 38% and the inhibition at 1 µM (PAK2) was 14%. The inhibition at 1 µM (EGFR) was 0%, the inhibition at 1 µM (EPHA4) was 0% and the inhibition at 1 µM (STK35) was 0%. The inhibition at 1 µM (LATS2) was 14%, the inhibition at 1 µM (FGFR2) was 0% and the inhibition at 1 µM (CASK) was 26%. It also gave an inhibition at 1 µM (HIPK4) of 0%, an inhibition at 1 µM (BLK) of 0% and an inhibition at 1 µM (YANK3) of 0%. For the same compound, the inhibition at 1 µM (MAP4K2) was 3%, the inhibition at 1 µM [1] was 0% and the inhibition at 1 µM (EPHA2) was 0%.
